Reference: patent publication US7589109B2, “Oxyindole derivatives” (Pfizer Inc, priority 2005, dated 2009)
Each block holds one molecule with its values, some of them ahead of it.

Tests used:
[1] = molecular target: T1, 5-HT4 receptors in the rat esophagus (Rattus norvegicus, UniProt Q62758); assay: TMM functional assay; settings: 1 μM antagonist added to bath; carbachol-contracted rat TMM relaxed by 5-HT
T1 construct: The remaining inner tube of smooth muscle was known as the TMM; tissue Charles River (animals); host or cells: rat esophagus tunica muscularis mucosae (TMM) smooth muscle, organ bath
T1 sequence (Q62758 whole entry): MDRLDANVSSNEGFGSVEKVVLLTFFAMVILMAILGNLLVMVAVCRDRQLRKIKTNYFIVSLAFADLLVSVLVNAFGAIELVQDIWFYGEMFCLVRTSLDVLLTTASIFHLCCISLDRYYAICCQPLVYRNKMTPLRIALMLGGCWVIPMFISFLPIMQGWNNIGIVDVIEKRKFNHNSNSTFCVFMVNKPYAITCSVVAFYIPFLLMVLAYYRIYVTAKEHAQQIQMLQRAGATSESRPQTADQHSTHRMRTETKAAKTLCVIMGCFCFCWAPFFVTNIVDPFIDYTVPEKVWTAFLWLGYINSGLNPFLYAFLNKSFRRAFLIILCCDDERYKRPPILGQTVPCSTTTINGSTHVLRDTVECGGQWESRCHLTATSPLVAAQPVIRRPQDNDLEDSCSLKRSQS
Source text: More specifically, partial agonist activity can be measured according to the following procedures.
Male SD rats (Charles River) weighing 250-350 g were stunned and then killed by cervical dislocation. The esophagus was dissected from immediately proximal to the stomach (including piece of stomach to mark distal end) up to the level of the trachea and then placed in fresh Krebs' solution.
The outer skeletal muscle layer was removed in one go by peeling it away from the underlying smooth muscle layer using forceps (stomach to tracheal direction). The remaining inner tube of smooth muscle was known as the TMM. This was trimmed to 2 cm from the original ‘stomach-end’ and the rest discarded.
The TMMs were mounted as whole ‘open’ tubes in longitudinal orientation in 5 ml organ baths filled with warm (32° C.) aerated Krebs. Tissues were placed under an initial tension of 750 mg and allowed to equilibrate for 60 minutes. The tissues were re-tensioned twice at 15 minute intervals during the equilibration period. The pump flow rate was set to 2 ml/min during this time.
Following equilibration, the pump was switched off. The tissues were exposed to 1 μM carbachol and contracted and reached a steady contractile plateau within 15 minutes. Tissues were then subject to 1 μM 5-HT (this was to prime the tissues). The tissues relaxed in response to 5-HT fairly rapidly—within 1 minute. […]

Structure (SMILES): O=C(NCC1CCN(CC2(C(=O)O)CCC2)CC1)N1C(=O)C2(CCCC2)c2ccccc21
- melting point: 171 °C

Structure (SMILES): O=C(OCCN1CCCCC1)c1c[nH]c2ccccc12 [SB 203,186, 1H-Indole-3-carboxylic acid, 2-(1-piperidinyl)ethyl ester]
- reversal of agonist-induced relaxation [1]: reversed 5-HT induced relaxation

Structure (SMILES): CC(C)(CN1CCC(CNC(=O)N2C(=O)C3(CCCC3)c3ccccc32)CC1)C(=O)O
- melting point: 189.1 °C

Structure (SMILES): CC1(C)C(=O)N(C(=O)NCC2(O)CCN(CC3(C(=O)O)CCC3)CC2)c2cc(F)ccc21
- melting point: 159 °C

Structure (SMILES): O=C(NCC1CCN(CC2(C(=O)O)CCCC2)CC1)N1C(=O)C2(CCCC2)c2ccccc21
- melting point: 188.1 °C

Structure (SMILES): CC1(C)C(=O)N(C(=O)NCC2CCN(CC3(C(=O)O)CCC3)CC2)c2cc(F)ccc21
- melting point: 193 °C

Structure (SMILES): O=C(NCC1CCN(CC2(C(=O)O)CCC2)CC1)N1C(=O)C2(CCCC2)c2ccc(F)cc21
- melting point: 150.3 °C

Structure (SMILES): CC(C)(CN1CCC(CNC(=O)N2C(=O)C(C)(C)c3ccccc32)CC1)C(=O)O
- melting point: 164.5 °C

Structure (SMILES): O=C(NCC1CCN(CC2(C(=O)O)CC2)CC1)N1C(=O)C2(CCCC2)c2ccccc21
- melting point: 186.5 °C

Structure (SMILES): CC(C)(CN1CCC(F)(CNC(=O)N2C(=O)C(C)(C)c3ccc(F)cc32)CC1)C(=O)O
- melting point: 176 °C

Structure (SMILES): CC1(C)C(=O)N(C(=O)NCC2CCN(C(C)(C)C(=O)O)CC2)c2cc(F)ccc21
- melting point: 213 °C

Other lines, results leading:

- melting point: 134 °C
Structure (SMILES): CC(C)(CN1CCC(CNC(=O)N2C(=O)C(C)(C)c3ccc(F)cc32)CC1)C(=O)O

- melting point: 156 °C
Structure (SMILES): CC(C)(CN1CCC(F)(CNC(=O)N2C(=O)C(C)(C)c3ccccc32)CC1)C(=O)O

- melting point: 160.4 °C
Structure (SMILES): O=C(NCC1CCN(CC2(C(=O)O)CCCCC2)CC1)N1C(=O)C2(CCCC2)c2ccccc21

- melting point: 161.3 °C
Structure (SMILES): O=C(NCC1CCN(CC2(C(=O)O)CCOCC2)CC1)N1C(=O)C2(CCCC2)c2ccc(F)cc21

- melting point: 146.3 °C
Structure (SMILES): O=C(NCC1CCN(CC2(C(=O)O)CCOCC2)CC1)N1C(=O)C2(CCCC2)c2ccccc21

- melting point: 170.9 °C
Structure (SMILES): CC1(C)C(=O)N(C(=O)NCC2CCN(CC3(C(=O)O)CCC3)CC2)c2ccccc21
